Assay results reported in US20220023269A1, “Methods Of Treating Diabetes In Severe Insulin-Resistant Diabetic Subjects” (Balticgruppen Bio AB, priority 2018, published 2022).

Key:
[1] = tested on: Wi-38 human lung fibroblast cells; assay: Determination of cellular ATP content; assay type: cell-based; details: 16 hours; dose-dependent
Method: Wi-38 human lung fibroblast cells were stimulated with test material for 16 hours. Thereafter ATP content were determined with the ATP bioluminescence assay kit HS II (Roche Applied Science #11699709001) according to manufacturer's recommendations. The ATP data were normalised to cellular protein determined using BCA protein assay kit (Pierce #23225).

[2] = tested on: CBA mice on HFD; assay: Crossover HFD / test material-HFD (2 mg/g) at housing and thermoneutral conditions; assay type: in vivo
Method: 14 weeks old CBA mice were randomised into HFD and test material-HFD (2 mg/g) groups for 2 weeks while housed at 22° C. The two groups were then switched from HFD to test material-HFD and vice versa for an additional 4.5 weeks before transferred from 22° C. to 30° C. (thermoneutrality). After one week at 30° C. the diet was switched again and one week after the switch core body temperature were determined.
(§1) Food intake was measured weekly by giving each cage 200 g pellet. After one week, the amount of pellets consumed were calculated and adjusted according to the number of animals/cage. Body weight was measured weekly. Body composition was assessed using EchoMRI.

[3] = target: T1, PP2Ca (Homo sapiens, UniProt P35813); assay: PP2C phosphatase activity assay; assay type: biochemical; details: 5, 10 or 20 μM
T1 construct: purchased Abcam ab51205
Method: 3 ng/μl PP2Ca (Abcam ab51205) and 5, 10 or 20 μM test material in buffer (50 mM Tris-HCL pH 7.5, 0.1 mM EDTA, 0.5 mM DTT, 5 mM MgCl2) was used in the Sensolyte FDP protein phosphatase assay kit (Anaspec #71100) according to the manufacturer's instructions to measure the activity of PP2Ca. The fluorescence intensity was measured in a Bio Tek Synergy H4 multi-mode microplate reader.

[4] = tested on: rat skeletal L6 myotubes; assay: Glucose uptake in L6 myotubes; assay type: cell-based; details: 2.5, 5, 10 μM; absence of insulin; siAMPKα1/α2
Method: Rat L6 skeletal muscle cells grown in high-glucose (4.5 g/L) Dulbecco's Modified Eagle Medium (Gibco #31966), 10% fetal bovine serum (Gibco #10500-064) and 25 μg/ml gentamicin (Gibco 1 #5750) were induced to differentiate, by reducing the serum concentration to 2% for 14 days by which time the majority of myoblast had differentiated to myotubes. Myotubes were rinsed in serum-free low-glucose (1 g/L) DMEM (Gibco a #21885), treated with vehicle control, 2.5, 5 and 10 μM test material (serum-free low-glucose DMEM, 0.1% DMSO) for 2 hours, rinsed in serum-free DMEM w/o glucose (Gibco #11966) and thereafter incubated with the same for 20 minutes before addition of 1 μCi 2-Deoxy-D-glucose (2-DG) (Perkin Elmer #NET549A250UC) for 10 minutes. The cells were rinsed 3 times in serum-free DMEM w/o glucose and lysed in 1 ml RIPA buffer (150 mM Sodiumchloride, 1% NP40, 0.5% Sodiumdeoxycholate, 0.1% SDS, 50 mM Tris pH8.0). 300 μl were added to 4 ml liquid scintillation cocktail (Perkin Elmer #1200-437) before counted, 1 minute, in a Wallac 1414 beta counter. CPM was converted to arbitrary units by setting vehicle control as 1. […]

[5] = tested on: hIAPPtg mice; assay: Diet switch in hIAPPtg mice: HFD 9 w then test material-HFD (0.8 mg/g) 7 w; assay type: in vivo
Method: as §1
The potent effect of the test material on established diabetes and obesity in hIAPPtg mice on HFD formulated with 2 mg/g test material leaves open the possibility that the beneficial metabolic effects (FIG. 4, F-H) observed in these mice are secondary to the effects on weight and body fat. To address this issue, we therefore performed diet switch experiments on hIAPPtg mice using a lower test material-HFD concentration, where mice were fed HFD for 9 w and then either continued on HFD or switched to test material-HFD (0.8 mg/g) for 7 w.

T1 sequence (P35813 whole entry): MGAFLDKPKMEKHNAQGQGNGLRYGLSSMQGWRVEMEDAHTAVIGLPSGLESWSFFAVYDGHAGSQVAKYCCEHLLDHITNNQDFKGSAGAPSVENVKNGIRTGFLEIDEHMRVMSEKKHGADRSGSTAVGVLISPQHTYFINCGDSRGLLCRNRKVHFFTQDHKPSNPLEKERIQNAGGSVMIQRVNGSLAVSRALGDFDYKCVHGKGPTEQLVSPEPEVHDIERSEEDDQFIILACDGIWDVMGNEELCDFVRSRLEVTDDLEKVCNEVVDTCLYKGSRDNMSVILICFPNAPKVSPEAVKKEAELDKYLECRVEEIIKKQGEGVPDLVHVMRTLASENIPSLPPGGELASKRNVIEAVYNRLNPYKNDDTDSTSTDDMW

- increase in core temperature vs HFD (nonsignificant) ([2]; 30° C. housing): 0.2 °C
- core temperature ([2]; 30° C. housing, one week after switch, n=5): 37.9 °C
- activity of PP2C [3]: without inhibiting the activity of PP2C
Structure (SMILES): O=C(Nc1nc(=O)n(Cc2ccc(Cl)cc2)s1)c1ccc(Cl)cc1 [test material, 4-chloro-N-[2-[(4-chlorophenyl)methyl]-3-oxo-1,2,4-thiadiazol-5-yl]benzamide]
- ATP/protein ratio [1]: increased
- body weight gain ([2]; 2 mg/g in HFD, day 1-14, housing temperature): gained almost no weight
- body weight at thermoneutrality, continued on test material-HFD ([2]; 30° C. from day 49): still averted weight gain
- body weight after switch from HFD to test material-HFD at thermoneutrality ([2]; 30° C., switch at day 57): rapidly started to lose weight
- body weight after switch from HFD to test material-HFD ([2]; switch at day 15, housing temperature): rapidly started to lose weight
- 2-Deoxy-D-glucose (2-DG) uptake [4]: increased 2-Deoxy-D-glucose (2-DG) uptake in a dose- and AMPK-dependent manner
- body fat ([5]; 0.8 mg/g for 7 w): did not provoke body weight or body fat loss
- body weight ([5]; 0.8 mg/g for 7 w): did not provoke body weight or body fat loss
- HOMA-IR ([5]; 0.8 mg/g, 6 w after the switch): significantly reduced
- glucose levels ([5]; 0.8 mg/g, 6 w after the switch): significantly reduced
- insulin levels ([5]; 0.8 mg/g, 6 w after the switch): significantly reduced
